From patent US9902702B2, “Spirocycloheptanes as inhibitors of rock” (BRISTOL-MYERS SQUIBB COMPANY, priority 2014, dated 2018)
Structures can show the parent of a compound that is named as a salt.

target: ROCK2 (Homo sapiens, UniProt O75116); test: ROCK assay: phosphorylation of FITC peptide substrate, LABCHIP 3000 mobility shift; type: biochemical; details: 5 μM ATP, 1.5 μM peptide substrate; read-out: ROCK2 Activity (ROCK IC50 range)
Method in brief: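 IC50 values come from curve-fitting percent kinase inhibition across a compound dilution series. The reaction is started with Rho kinase variant in HEPES pH 7.5 buffer with MgCl2, Brij-35 and DTT, with 5 μM ATP, 1.5 μM FITC-labelled peptide and under 2% DMSO. After EDTA quench, product and substrate are separated by microfluidic mobility shift.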

ROCK2, sequence (O75116 whole entry, species assumed): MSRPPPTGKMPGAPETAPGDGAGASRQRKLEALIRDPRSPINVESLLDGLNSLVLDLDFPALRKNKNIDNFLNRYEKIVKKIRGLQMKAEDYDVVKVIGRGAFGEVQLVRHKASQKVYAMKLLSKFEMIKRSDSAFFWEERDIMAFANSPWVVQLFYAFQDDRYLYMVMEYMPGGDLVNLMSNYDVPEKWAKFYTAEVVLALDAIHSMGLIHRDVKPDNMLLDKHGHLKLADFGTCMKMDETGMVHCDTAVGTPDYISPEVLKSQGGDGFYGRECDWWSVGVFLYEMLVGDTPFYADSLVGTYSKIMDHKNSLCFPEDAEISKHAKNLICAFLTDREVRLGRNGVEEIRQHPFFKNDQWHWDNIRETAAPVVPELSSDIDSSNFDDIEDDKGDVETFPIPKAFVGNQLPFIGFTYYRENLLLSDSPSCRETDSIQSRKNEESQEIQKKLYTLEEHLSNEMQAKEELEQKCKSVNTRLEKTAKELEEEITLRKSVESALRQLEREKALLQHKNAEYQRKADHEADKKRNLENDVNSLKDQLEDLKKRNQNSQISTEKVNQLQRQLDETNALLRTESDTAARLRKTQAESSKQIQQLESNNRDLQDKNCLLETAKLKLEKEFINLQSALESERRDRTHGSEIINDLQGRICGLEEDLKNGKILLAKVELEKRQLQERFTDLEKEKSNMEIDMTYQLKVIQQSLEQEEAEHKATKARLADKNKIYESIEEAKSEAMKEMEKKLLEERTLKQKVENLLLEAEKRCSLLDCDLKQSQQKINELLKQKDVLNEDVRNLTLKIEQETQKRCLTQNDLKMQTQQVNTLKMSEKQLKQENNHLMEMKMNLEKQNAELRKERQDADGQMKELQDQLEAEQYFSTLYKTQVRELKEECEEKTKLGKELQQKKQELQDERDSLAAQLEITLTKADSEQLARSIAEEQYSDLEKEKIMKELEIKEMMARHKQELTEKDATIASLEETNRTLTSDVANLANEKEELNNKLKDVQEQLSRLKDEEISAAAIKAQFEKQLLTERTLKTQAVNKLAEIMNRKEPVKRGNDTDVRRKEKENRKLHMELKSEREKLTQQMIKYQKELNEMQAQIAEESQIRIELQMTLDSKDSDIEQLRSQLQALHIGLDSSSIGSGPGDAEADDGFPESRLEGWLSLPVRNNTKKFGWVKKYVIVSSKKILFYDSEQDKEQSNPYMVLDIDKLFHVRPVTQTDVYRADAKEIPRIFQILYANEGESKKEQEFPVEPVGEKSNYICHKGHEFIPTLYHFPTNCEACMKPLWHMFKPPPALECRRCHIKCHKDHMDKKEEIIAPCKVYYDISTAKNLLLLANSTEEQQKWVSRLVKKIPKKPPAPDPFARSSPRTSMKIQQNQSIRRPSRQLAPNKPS

SMILES	IC50
Cn1nc(C(=O)NC2CC3(C2)CC(c2n[nH]c(=O)c4ccccc24)C3)cc1OC(F)F [Example 28, 5-(difluoromethoxy)-1-methyl-N-[(aR)-6-(4-oxo-3,4-dihydrophthalazin-1-yl)spiro[3.3]heptan-2-yl]-1H-pyrazole-3-carboxamide]	15.1 to 100 nM
CC(C)(O)Cn1nc(C(=O)NC2CC3(C2)CC(F)(c2n[nH]c(=O)c4ccccc24)C3)c2ccc(F)cc21 (centres unmarked) [Example 163, 6-fluoro-N-(6-fluoro-6-(4-oxo-3,4-dihydrophthalazin-1-yl)spiro[3.3]heptan-2-yl)-1-(2-hydroxy-2-methylpropyl)-1H-indazole-3-carboxamide]	15.1 to 100 nM
[H][C@]1(c2n[nH]c(=O)c3ccccc32)C[C@]2(C[C@@H](NC(=O)c3cn4ccc(-c5cccnc5)cc4n3)C2)C1 (some centres unmarked) [Example 453]	15.1 to 100 nM
CC(C)(O)Cn1nc(C(=O)N[C@H]2CC3(C2)C[C@H](c2n[nH]c(=O)c4ccccc42)C3)c2ccc(C3CC3)cc21 (stereo partly drawn) [Example 142, 6-cyclopropyl-1-(2-hydroxy-2-methylpropyl)-N-((aR)-6-(4-oxo-3,4-dihydrophthalazin-1-yl)spiro[3.3]heptan-2-yl)-1H-indazole-3-carboxamide]	2.01 to 5 nM
[2H]C([2H])([2H])n1cc(-c2ccc(NC(=O)NC3CC4(C3)CC(c3n[nH]c(=O)c5ccccc35)C4)cc2)cn1 [Example 229, 1-(4-(1-(^2H3)methyl-1H-pyrazol-4-yl)phenyl)-3-((aR)-6-(4-oxo-3,4-dihydrophthalazin-1-yl)spiro[3.3]heptan-2-yl)urea]	5.1 to 15 nM
[H][C@]1(c2n[nH]c(=O)c3ccccc32)C[C@]2(C[C@@H](NC(=O)c3cc4cc(OCc5ccccc5)ccc4[nH]3)C2)C1 (stereo partly drawn) [Example 319, 5-(benzyloxy)-N-((aR)-6-(4-oxo-3,4-dihydrophthalazin-1-yl)spiro[3.3]heptan-2-yl)-1H-indole-2-carboxamide]	15.1 to 100 nM
COc1ccc2c(c1)CN(C(=O)NC1CC3(C1)CC(c1n[nH]c(=O)c4ccccc14)C3)C2 [Example 263, 5-methoxy-N-((aR)-6-(4-oxo-3,4-dihydrophthalazin-1-yl)spiro[3.3]heptan-2-yl)isoindoline-2-carboxamide]	5.1 to 15 nM
O=C(NC1CC2(C1)CC(c1n[nH]c(=O)c3ccccc13)C2)c1onc2ccccc12 [Example 78, N-((aR)-6-(4-oxo-3,4-dihydrophthalazin-1-yl)spiro[3.3]heptan-2-yl)benzo[c]isoxazole-3-carboxamide]	5.1 to 15 nM
O=C1N[C@@H](Cc2ccccc2)CN1[C@H]1CC2(C[C@H](c3n[nH]c(=O)c4ccccc43)C2)C1 (stereo partly drawn) [Example 458, 4-((aR)-6-((S)-4-benzyl-2-oxoimidazolidin-1-yl)spiro[3.3]heptan-2-yl)phthalazin-1(2H)-one]	100 to 2100 nM
CC(C)(O)c1ccc2c(C(=O)N[C@H]3CC4(C3)C[C@H](c3n[nH]c(=O)c5ccccc53)C4)cnn2c1 (stereo partly drawn) [Example 215, 6-(2-hydroxypropan-2-yl)-N-((aR)-6-(4-oxo-3,4-dihydrophthalazin-1-yl)spiro[3.3]heptan-2-yl)pyrazolo[1,5-a]pyridine-3-carboxamide]	5.1 to 15 nM
O=C(NC1CC2(C1)CC(c1n[nH]c(=O)c3ccccc13)C2)c1ccn(CCC(F)(F)F)n1 [Example 22, N-[(aR)-6-(4-oxo-3,4-dihydrophthalazin-1-yl)spiro[3.3]heptan-2-yl]-1-(3,3,3-trifluoropropyl)-1H-pyrazole-3-carboxamide]	5.1 to 15 nM
O=C(NC1CC2(C1)CC(c1n[nH]c(=O)c3ccccc13)C2)c1ccn(CC(F)(F)F)n1 (centres unmarked) [Example 7, N-[6-(4-oxo-3,4-dihydrophthalazin-1-yl)spiro[3.3]heptan-2-yl]-1-(2,2,2-trifluoroethyl)-1H-pyrazole-3-carboxamide]	5.1 to 15 nM
Cc1c(C(=O)NC2CC3(C2)CC(c2n[nH]c(=O)c4ccccc24)C3)cnn1-c1ccccc1 (centres unmarked) [Example 13, 5-methyl-N-[6-(4-oxo-3,4-dihydrophthalazin-1-yl)spiro[3.3]heptan-2-yl]-1-phenyl-1H-pyrazole-4-carboxamide]	2.01 to 5 nM
O=C(NC1CC2(C1)CC(c1n[nH]c(=O)c3ccccc13)C2)c1noc(-c2ccc(F)cc2)n1 [Example 118, 5-(4-fluorophenyl)-N-((aR)-6-(4-oxo-3,4-dihydrophthalazin-1-yl)spiro[3.3]heptan-2-yl)-1,2,4-oxadiazole-3-carboxamide]	15.1 to 100 nM
[H][C@]1(c2n[nH]c(=O)c3ccccc32)C[C@@]2(C[C@H](NC(=O)c3nc4c(s3)CN(C)CC4)C2)C1 (stereo partly drawn) [Example 296, 5-methyl-N-((aR)-6-(4-oxo-3,4-dihydrophthalazin-1-yl)spiro[3.3]heptan-2-yl)-4,5,6,7-tetrahydrothiazolo [5,4-c]pyridine-2-carboxamide]	100 to 2100 nM
[H][C@]1(c2n[nH]c(=O)c3ccccc32)C[C@]2(C[C@@H](NC(=O)c3cnc4c(F)cc(C(F)(F)F)cn34)C2)C1 (stereo partly drawn) [Example 404, 8-fluoro-N-((aR)-6-(4-oxo-3,4-dihydrophthalazin-1-yl)spiro[3.3]heptan-2-yl)-6-(trifluoromethyl)imidazo[1,2-a]pyridine-3-carboxamide]	15.1 to 100 nM
[H][C@]1(c2n[nH]c(=O)c3ccccc32)C[C@]2(C[C@@H](NC(=O)c3cccc(-c4cc[nH]n4)c3)C2)C1 (stereo partly drawn) [Example 361, N-((aR)-6-(4-oxo-3,4-dihydrophthalazin-1-yl)spiro[3.3]heptan-2-yl)-3-(1H-pyrazol-3-yl)benzamide]	5.1 to 15 nM
CC(C)(O)Cn1ccc(C(=O)NC2CC3(C2)CC(c2n[nH]c(=O)c4ccccc24)C3)n1 [Example 30, 1-(2-hydroxy-2-methylpropyl)-N-[(aR)-6-(4-oxo-3,4-dihydrophthalazin-1-yl)spiro[3.3]heptan-2-yl]-1H-pyrazole-3-carboxamide]	15.1 to 100 nM
COc1ccc(C(=O)NC2CC3(C2)CC(c2n[nH]c(=O)c4ccccc24)C3)nc1 [Example 351, 5-methoxy-N-((aR)-6-(4-oxo-3,4-dihydrophthalazin-1-yl)spiro[3.3]heptan-2-yl)picolinamide]	100 to 2100 nM

The next lines start with the values.

IC50	SMILES
2.01 to 5 nM	CC(C)(O)COc1ccc2c(C(=O)NC3CC4(C3)CC(c3n[nH]c(=O)n5cccc35)C4)cnn2c1 (centres unmarked) [Example 279, 6-(2-hydroxy-2-methylpropoxy)-N-(6-(4-oxo-3,4-dihydropyrrolo[1,2-d][1,2,4]triazin-1-yl)spiro[3.3]heptan-2-yl)pyrazolo[1,5-a]pyridine-3-carboxamide, TFA]
2.01 to 5 nM	[H][C@]1(c2n[nH]c(=O)c3ccccc32)C[C@]2(C[C@@H](NC(=O)c3ccc(-c4cnn(C5CC5)c4)c(F)c3)C2)C1 (stereo partly drawn) [Example 448, 4-(1-cyclopropyl-1H-pyrazol-4-yl)-3-fluoro-N-((aR)-6-(4-oxo-3,4-dihydrophthalazin-1-yl)spiro[3.3]heptan-2-yl)benzamide]
0.2 to 2 nM	[H][C@]1(c2n[nH]c(=O)c3ccccc32)C[C@]2(C[C@@H](NC(=O)c3cnc4cc(-c5cnn(C(C)C)c5)ccn34)C2)C1 (stereo partly drawn) [Example 441, 7-(1-isopropyl-1H-pyrazol-4-yl)-N-((aR)-6-(4-oxo-3,4-dihydrophthalazin-1-yl)spiro[3.3]heptan-2-yl)imidazo[1,2-a]pyridine-3-carboxamide]
0.2 to 2 nM	[H][C@]1(c2n[nH]c(=O)c3ccccc32)C[C@]2(C[C@@H](NC(=O)c3cnc4c(OCc5ccccc5)cccn34)C2)C1 (stereo partly drawn) [Example 413, 8-(benzyloxy)-N-((aR)-6-(4-oxo-3,4-dihydrophthalazin-1-yl)spiro[3.3]heptan-2-yl)imidazo[1,2-a]pyridine-3-carboxamide]
0.2 to 2 nM	CC1(C)CN(CCOc2ccc3c(C(=O)NC4CC5(C4)CC(c4n[nH]c(=O)c6ccccc46)C5)cnn3c2)CCC1O [Example 184, 6-(2-(4-hydroxy-3,3-dimethylpiperidin-1-yl)ethoxy)-N-((aR)-6-(4-oxo-3,4-dihydrophthalazin-1-yl)spiro[3.3]heptan-2-yl)pyrazolo[1,5-a]pyridine-3-carboxamide]
0.2 to 2 nM	[H][C@]1(c2n[nH]c(=O)c3ccccc32)C[C@]2(C[C@@H](NC(=O)c3cnn4cc(OCC(C)(C)OC(=O)[C@@H](N)C(C)C)ccc34)C2)C1 (stereo partly drawn) [Example 269, (S)-2-methyl-1-((3-(((aR)-6-(4-oxo-3,4-dihydrophthalazin-1-yl)spiro[3.3]heptan-2-yl)carbamoyl)pyrazolo[1,5-a]pyridin-6-yl)oxy)propan-2-yl2-amino-3-methylbutanoate, TFA]
0.2 to 2 nM	O=C(NC1CC2(C1)CC(c1n[nH]c(=O)c3ccccc13)C2)c1cnn2cc(OC3CCS(=O)(=O)CC3)ccc12 (stereo not drawn) [Example 132, 6-((1,1-dioxidotetrahydro-2H-thiopyran-4-yl)oxy)-N-((αR)-6-(4-oxo-3,4-dihydrophthalazin-1-yl)spiro[3.3]heptan-2-yl)pyrazolo[1,5-α]pyridine-3-carboxamide]
0.2 to 2 nM	Cn1cc(-c2ccc3c(c2)CCN3C(=O)NC2CC3(C2)CC(c2n[nH]c(=O)c4ccccc24)C3)cn1 [Example 235, 5-(1-methyl-1H-pyrazol-4-yl)-N-((aR)-6-(4-oxo-3,4-dihydrophthalazin-1-yl)spiro[3.3]heptan-2-yl)indoline-1-carboxamide]
2.01 to 5 nM	[H][C@]1(c2n[nH]c(=O)c3ccccc32)C[C@]2(C[C@@H](NC(=O)c3cnc4cc(C)c(F)cn34)C2)C1 (stereo partly drawn) [Example 410, 6-fluoro-7-methyl-N-((aR)-6-(4-oxo-3,4-dihydrophthalazin-1-yl)spiro[3.3]heptan-2-yl)imidazo[1,2-a]pyridine-3-carboxamide]
0.2 to 2 nM	O=C(NC1CC2(C1)CC(c1n[nH]c(=O)c3ccccc13)C2)c1cnn2cc(-c3nccs3)ccc12 (stereo not drawn) [Example 173, N-((αR)-6-(4-oxo-3,4-dihydrophthalazin-1-yl)spiro[3.3]heptan-2-yl)-6-(thiazol-2-yl)pyrazolo[1,5-α]pyridine-3-carboxamide]
